Results taken from paper PMC6139898, “Engineering xylose metabolism in thraustochytrid T18” (Biotechnology for Biofuels, 2018).

Columns and labels:
XylA = target: T1, XylA (Escherichia coli, UniProt P00944); assay: HPLC-RI substrate conversion, overnight; assay type: biochemical; conditions: 30 °C, 50 mM HEPES pH 7.4, 10 mM MgCl2, 5 mM MgATP
T1 construct: full length, N-terminal His tag, expressed in E. coli BL21(DE3)pLysS
T1 sequence (P00944 1-440): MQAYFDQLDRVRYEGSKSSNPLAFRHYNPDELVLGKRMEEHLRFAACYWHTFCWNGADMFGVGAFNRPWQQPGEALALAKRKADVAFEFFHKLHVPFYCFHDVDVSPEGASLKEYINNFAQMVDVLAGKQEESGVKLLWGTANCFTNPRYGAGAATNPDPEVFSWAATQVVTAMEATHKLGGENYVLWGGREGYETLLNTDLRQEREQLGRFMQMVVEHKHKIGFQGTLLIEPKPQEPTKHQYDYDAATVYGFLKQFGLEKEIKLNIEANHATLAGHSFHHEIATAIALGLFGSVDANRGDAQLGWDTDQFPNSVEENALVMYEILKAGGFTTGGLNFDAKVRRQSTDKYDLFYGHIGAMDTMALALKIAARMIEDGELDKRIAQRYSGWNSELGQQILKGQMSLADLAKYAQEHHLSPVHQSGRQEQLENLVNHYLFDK

[1] = target: T2, T18 xylose isomerase (XI) (Thraustochytrium sp. ONC-T18, UniProt A0A385ZBK6); assay: HPLC-RI substrate conversion, overnight; assay type: biochemical; conditions: 50 °C, 50 mM HEPES pH 7.4, 10 mM MgCl2, 5 mM MgATP; partly pure fraction
T2 construct: gene xylA
T2 sequence (A0A385ZBK6 1-439): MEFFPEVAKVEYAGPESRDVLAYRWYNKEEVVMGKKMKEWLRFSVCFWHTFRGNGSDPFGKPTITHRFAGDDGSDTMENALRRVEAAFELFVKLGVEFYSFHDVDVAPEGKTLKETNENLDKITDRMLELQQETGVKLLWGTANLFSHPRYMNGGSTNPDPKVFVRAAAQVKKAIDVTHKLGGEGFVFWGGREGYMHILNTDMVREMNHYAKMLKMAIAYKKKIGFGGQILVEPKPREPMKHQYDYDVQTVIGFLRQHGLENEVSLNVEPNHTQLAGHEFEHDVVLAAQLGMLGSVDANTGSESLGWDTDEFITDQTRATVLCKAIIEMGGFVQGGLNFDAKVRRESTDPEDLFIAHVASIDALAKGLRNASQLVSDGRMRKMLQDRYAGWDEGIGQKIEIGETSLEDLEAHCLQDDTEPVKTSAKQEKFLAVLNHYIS

Row | Compound | HPLC-RI substrate conversion, overnight (XylA) | HPLC-RI substrate conversion, overnight [1]
1 | OC1OC[C@@H](O)[C@H](O)[C@H]1O (stereo partly shown) [xylose] | Both XylA and T18 xylose isomerase showed increased activity on both sugars | Both XylA and T18 xylose isomerase showed increased activity on both sugars
2 | O=C(CO)[C@@H](O)[C@H](O)CO [xylulose] | Both XylA and T18 xylose isomerase showed increased activity on both sugars | Both XylA and T18 xylose isomerase showed increased activity on both sugars
